Laboratory results as given in patent US8288375B2, “Fungicidal bicyclic pyrazoles” (E.I. du Pont de Nemours and Company, priority 2007, dated 2012).

Legend:
Format in all cases: in vivo
[1] = tested on: Erysiphe graminis f. sp. tritici; experiment: Test A: wheat powdery mildew, test suspension sprayed on wheat seedlings, disease rating; details: 200 ppm test suspension, 100 = 100% disease control, 0 = no control; for pest or weed control at 200 ppm: Blumeria graminis, 192 h
[2] = tested on: Puccinia recondite f sp. tritici; experiment: Test B: wheat leaf rust, test suspension sprayed on wheat seedlings, disease rating; details: 200 ppm test suspension; for pest or weed control at 200 ppm: Puccinia, 192 h;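 on all read-outs here: 200 ppm unless marked * meaning 40 ppm or ** meaning 10 ppm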
[3] = tested on: Fusarium graminearum; experiment: whole plant or invertebrate; details: for pest or weed control at 200 ppm: Fusarium graminearum, in Triticum aestivum, 192 h, read-out: Test C disease control rating; for Test C disease control rating: 200 ppm test suspension
[4] = tested on: Septoria nodorum; experiment: Test D: wheat glume blotch, test suspension sprayed on wheat seedlings, disease rating; details: 200 ppm test suspension; for pest or weed control at 200 ppm: Parastagonospora nodorum, 216 h
[5] = tested on: Septoria tritici; experiment: Test E: wheat leaf blotch, test suspension sprayed on wheat seedlings, disease rating; details: 200 ppm test suspension; for pest or weed control at 200 ppm: Zymoseptoria tritici, 504 h;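 on all read-outs here: 200 ppm unless marked * meaning 40 ppm or ** meaning 10 ppm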
[6] = tested on: Phytophthora infestans; experiment: whole plant or invertebrate; details: for pest or weed control at 200 ppm: Phytophthora infestans, in Solanum lycopersicum, 120 h, read-out: Test J disease control rating; for Test J disease control rating: 200 ppm test suspension
[7] = tested on: Pythium aphanidermatum; experiment: Test L: bluegrass pythium blight, test suspension sprayed on bluegrass seedlings, disease rating; details: 200 ppm test suspension; for pest or weed control at 200 ppm: Pythium aphanidermatum, 120 h;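 on all read-outs here: 200 ppm unless marked * meaning 40 ppm or ** meaning 10 ppm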

| SMILES | pest or weed control at 200 ppm [1] [%] | pest or weed control at 200 ppm [2] [%] | pest or weed control at 200 ppm [3] [%] | pest or weed control at 200 ppm [4] [%] | pest or weed control at 200 ppm [5] [%] | pest or weed control at 200 ppm [6] [%] | pest or weed control at 200 ppm [7] [%] | Test A disease control rating [1] [%] | Test B disease control rating [2] [%] | Test C disease control rating [3] [%] | Test D disease control rating [4] [%] | Test E disease control rating [5] [%] | Test J disease control rating [6] [%] | Test L disease control rating [7] [%] |
| --- | --- | --- | --- | --- | --- | --- | --- | --- | --- | --- | --- | --- | --- | --- |
| CC(=O)Nc1nccc(-c2c(-c3ccc(F)cc3)nn3c2CCCC3)n1 [Compound 52, N-[4-[2-(4-fluorophenyl)-4,5,6,7-tetrahydropyrazolo[1,5-a]pyridin-3-yl]-2-pyrimidinyl]acetamide] | 0 | 100 | 99 | 97 | 98 | 95 | 100 |  |  |  |  |  |  |  |
| CCC(C)Nc1nccc(-c2c(-c3cccc(F)c3)nn3c2CCC3)n1 (centres unmarked) [compound 101] |  |  |  |  |  |  |  | 0 | 89 | 99 | 92 | 94 | 57 | 91 |
| CCN1CCCC1CNc1nccc(-c2c(-c3ccc(F)cc3)nn3c2CCCC3)n1 (centres unmarked) [compound 41] |  |  |  |  |  |  |  | 0 | 79 | 0 | 0 | 50 | 0 | 91 |
| Cc1cc(-c2nn3c(c2-c2ccnc(NC(C)C)n2)COCC3)ccc1F [compound 120] |  |  |  |  |  |  |  | 86 | 90 | 100 | 100 | 95 | 88 | 98 |
| CC(C)(CO)Nc1nccc(-c2c(-c3ccc(F)cc3)nn3c2CCCC3)n1 [compound 30] |  |  |  |  |  |  |  | 0 | 91 | 92 | 69 | 93 | 47 | 0 |
| CC(C)Nc1nccc(-c2c(-c3ccc(F)cc3)nn3c2CS(=O)(=O)CC3)n1 [Compound 114, 4-[2-(4-fluorophenyl)-6,7-dihydro-5,5-dioxido-4H-pyrazolo[5,1-c][1,4]thiazin-3-yl]-N-(1-methylethyl)-2-pyrimidinamine] | 57 | 100 | 94 | 73 | 86 | 100 | 100 |  |  |  |  |  |  |  |
| COCC(C)Nc1nccc(-c2c(-c3ccccc3F)nn3c2CCC3)n1 (centres unmarked) [compound 96] |  |  |  |  |  |  |  | 0 | 19 | 96 | 0 | 62 | 98 | 83 |
| CC(C)Nc1nccc(-c2c(-c3ccc(F)cc3F)nn3c2COCC3)n1 [compound 125] |  |  |  |  |  |  |  | 20 | 86 | 100 | 89 | 88 | 100 | 100 |
| CC(CS(=O)(=O)[O-])Nc1nccc(-c2c(-c3ccc(F)cc3)nn3c2CCCC3)n1.[Na+] (centres unmarked) [compound 64] |  |  |  |  |  |  |  | 0 | 0 | 0 | 0 | 0 | 0 | 0 |
| C[C@@H](CO)Nc1nccc(-c2c(-c3ccc(F)cc3)nn3c2CCCC3)n1 [compound 48] |  |  |  |  |  |  |  | 0 | 99 | 99 | 0 | 99 | 99 | 100 |
| CC(C)Nc1nccc(-c2c(-c3ccccc3F)nn3c2CCCC3)n1 [compound 36] |  |  |  |  |  |  |  | 0 | 91 | 99 | 96 | 96 | 90 | 99 |
| OCC(CO)Nc1nccc(-c2c(-c3ccc(F)cc3)nn3c2CCCC3)n1 [compound 63] |  |  |  |  |  |  |  | 81 | 91 | 0 | 0 | 82 | 9 | 100 |
| C[C@H](CO)Nc1nccc(-c2c(-c3ccc(F)cc3)nn3c2CCOC3)n1 [compound 113] |  |  |  |  |  |  |  | 0 | 97 | 99 | 78 | 91 | 96 | 100 |
| CC(COC(=O)CCC(=O)O)Nc1nccc(-c2c(-c3ccc(F)cc3)nn3c2CCCC3)n1 (centres unmarked) [compound 66] |  |  |  |  |  |  |  | 0 | 88 | 83 | 0 | 72 | 97 | 100 |
| Fc1ccc(-c2nn3c(c2-c2ccnc(NC4CCOCC4)n2)CCCC3)cc1 [compound 49] |  |  |  |  |  |  |  | 76 | 99 | 100 | 100 | 90 | 100 | 99 |
| COCC(C)Nc1nccc(-c2c(-c3cccc(F)c3)nn3c2CCC3)n1 (centres unmarked) [compound 100] |  |  |  |  |  |  |  | 0 | 89 | 99 | 90 | 92 | 98 | 100 |
| COc1nccc(-c2c(-c3ccc(F)cc3)nn3c2CCCC3)n1 [Compound 105] |  |  |  |  |  |  |  | 0 | 94 | 94 | 78 | 100 | 73 | 0 |
| CC(CO)Nc1nccc(-c2c(-c3ccc(F)cc3F)nn3c2COCC3)n1 (centres unmarked) [compound 127] |  |  |  |  |  |  |  | 0 | 97 | 96 | 60 | 86 | 100 | 99 |
| CC1CN1c1nccc(-c2c(-c3ccc(F)cc3)nn3c2CCCC3)n1 (centres unmarked) [compound 81] |  |  |  |  |  |  |  | 0 | 98 | 98 | 87 | 100 | 99 | 95 |
| Fc1ccc(-c2nn3c(c2-c2ccnc(NCC4CCCO4)n2)CCCC3)cc1 (centres unmarked) [compound 34] |  |  |  |  |  |  |  | 96 | 100 | 98 | 100 | 94 | 91 | 100 |
